Results reported in US20120046249A1, “METHODS OF REDUCING THE RISK OF CARDIOVASCULAR DISEASE IN POSTMENOPAUSAL WOMEN” (priority 2008, published 2012).

Legend:
Assay type in all cases: in vivo, human
[1] = tested on: MMP-8/TIMP-1; test: Median MMP-8/TIMP-1 ratio, further analysis of the 2-year RCT; conditions: women within five years of menopause, at two years
[2] = tested on: CRP; test: Serum CRP by high-sensitivity ELISA, 2-year RCT of SDD versus placebo; conditions: intent-to-treat
From the text: The objective of this study was to determine whether sub-antimicrobial-dose-doxycycline (SDD) can reduce serum inflammatory biomarkers associated with cardiovascular disease (CVD) risk (primary outcome: CRP) in a two-year, randomized controlled clinical trial (RCT) in postmenopausal (PM) women with systemic osteopenia and periodontitis.
(§1) 113 women who completed the RCT (SDD group: n=51; placebo group: n=62) consented at the final (two-year) study visit for their baseline, one-year and two-year serum samples to be analyzed for serum inflammatory biomarkers. Analyses by ELISA included CRP (high-sensitivity ELISA), IL-6, myeloperoxidase (MPO), IL-1β and TNF-α. Serum lipids (total cholesterol, HDL cholesterol, LDL cholesterol, VLDL cholesterol, and triglycerides) were analyzed by a commercial laboratory. Statistical analyses were performed using Generalized Estimating Equations; primary analyses were intent-to-treat (ITT). Pre-specified subgroup analyses also were performed. All results are presented as ratios of median values (SDD versus placebo) unless otherwise indicated.

[3] = Serum lipids (commercial laboratory), 2-year RCT of SDD versus placebo; conditions: subgroup: women more than 5 years postmenopausal
From the text: as §1, with “The objective of this study was to determine whether sub-antimicrobial-dose-doxycycline (SDD) can reduce serum inflammatory biomarkers associated with cardiovascular disease (CVD) risk (primary outcome: CRP) in a two-year, randomized controlled clinical trial (RCT) in postmenopausal (PM) women with systemic osteopenia and periodontitis. 113” for “113”

[4] = tested on: MMP-2; test: Serum MMP-2 by gelatin zymography, 2-year randomized clinical trial of SDD versus placebo; conditions: per-protocol analysis, p=0.03, SDD minus placebo
From the text: (§2) Elevated circulating MMP 9 has been associated with increased risk for fatal cardiac events and PM are considered a population vulnerable, due to decreased estrogen levels, to cardiovascular disease.
(§3) Details concerning subject inclusion and exclusion criteria have been published previously (Payne et al., J. Clin. Periodontol. 34:776-787, 2007). Briefly, subjects were 45-70 years of age at telephone screening, postmenopausal, osteopenic at the lumbar spine or femoral neck, and not receiving hormone replacement therapy (HRT). […] The subjects also had to be in good general health without co-morbidities that could have interfered with adherence to the study protocol, planned follow-up or endpoint measurement.
(§4) 113 PM women who completed the randomized clinical trial (RCT) consented at the final (two-year) study visit for the analysis of stored serum samples. 51 subjects received SDD (20 mg doxycycline) and 62 received placebo tablets b.i.d. for 2 years. Serum samples were collected at the baseline, 1-year and 2-year appointments and frozen at −80° C. until analyzed. MMPs were measured by gelatin zymography using denatured type I collagen as a substrate and purified MMP-2 (72 kDa) and MMP-9 (92 kDa) as standards. Gelatinolytic bands were scanned densitometrically. Statistical analyses were performed using Generalized Estimating Equations. Primary analyses were intent-to-treat (ITT). […]

[5] = tested on: MMP-9; test: Serum MMP-9 by gelatin zymography, 2-year randomized clinical trial of SDD versus placebo; conditions: postmenopausal osteopenic women with periodontitis, 20 mg doxycycline b.i.d. for 2 years, 92 kDa gelatinase
From the text: as §2, §3, §4

In the case of `C[C@H]1c2cccc(O)c2C(=O)C2=C(O)[C@]3(O)C(=O)C(C(N)=O)=C(O)[C@@H](N(C)C)[C@@H]3[C@@H](O)[C@@H]21` [SDD, 6α-deoxy-5-hydroxytetracycline], the “reduction of median MMP-8/TIMP-1 ratio” value [1] is reported as 49%, the “MMP-8/TIMP-1, ratio of medians (SDD relative to placebo)” value ([1]; 95% CI 0.31 to 0.82, p=0.006) is reported as 0.51 and the “reduction of median CRP levels compared to placebo” value ([2]; 2-year RCT, serum) is reported as 18%. For the same compound, the “CRP, ratio of median values (SDD versus placebo)” value ([2]; 95% CI 0.70 to 0.97, p=0.02) was 0.82, the “VLDL cholesterol, ratio of median values (SDD versus placebo)” value ([3]; 95% CI 0.76 to 1.00, p=0.06) was 0.87 and the “triglycerides, ratio of median values (SDD versus placebo)” value ([3]; 95% CI 0.76 to 1.01, p=0.06) was 0.87. For the same compound, the “increase in HDL cholesterol over time (difference in means)” value ([3]; 95% CI 1.17 to 10.81, p=0.01) was 5.99 mg/dL, the “reduction of serum MMP-2, 2-year values (average)” value [4] was 16.5 units and the “reduction of serum MMP-9 levels (difference in means, SDD minus placebo)” value ([5]; intent-to-treat analysis) was 28.4 scanning units. For the same compound, the “reduction of serum MMP-9 levels (difference in means, SDD minus placebo)” value ([5]; per-protocol analysis) was 29.4 scanning units.
